Marks after values point to notes of the source that are not given here.
Columns and labels:
CB1 = test: Real-time RT-PCR gene expression in CNS of MOG induced EAE: CB1; format: in vivo, mouse; conditions: 40 mg/kg p.o., day 31; over naive animals, normalized to cyclophilin
Experimental: (§1) Total RNA is prepared using SV total RNA isolation system (Promega). The brains and spinal cords, which were removed on day 31 from five animals treated with vehicle (i.e. untreated) or 40 mg/kg p.o. of compound 18F (i.e. treated) in the MOG-induced EAE study, were homogenized in lysis buffer. The lysates were transferred to an RNA isolation column, treated with DNAse, washed and eluted according to kit instructions. RNA concentrations were determined using GeneQuant II (Pharmacia-Amersham). Complementary DNA (cDNA) was synthesized from total RNA using […] II reverse transcriptase (Life Technologies). […] Quantitative real-time RT-PCR included 1 μl of the cDNA, 300 nM of the appropriate forward and reverse primers (according to the gene monitored) and 7.5 μl of the reaction mix containing buffer, nucleotides, Taq polymerase and SYBER green (SYBER Green master mix, Applied Biosystems), in a total reaction volume of 15 μl. […] During each annealing step, the amount of the amplified product was measured by the fluorescence of the double strand DNA binding dye, SYBER Green. The cycle of threshold (CT), representing the PCR cycle at which an increase in fluorescence above a baseline signal can be first detected, was determined for each product. […] Results were expressed as fold increase of gene expression in treated or untreated animals above the naive animals. […]

CB2 = test: Real-time RT-PCR gene expression in CNS of MOG induced EAE: CB2; format: in vivo, mouse; conditions: 40 mg/kg p.o., day 31, over naive animals
Experimental: as §1

IFN-γ = test: Real-time RT-PCR gene expression in CNS of MOG induced EAE: IFN-γ; format: in vivo, mouse; conditions: 40 mg/kg p.o., day 31, over naive animals
Experimental: as §1

iNOS = iNOS gene expression in LPS activated RAW 264.7 macrophages (real-time RT-PCR); format: cell-based, mouse
Experimental: (§2) RAW 264.7 macrophages, a mouse cell line (ATCC # TIB 71), were grown in Dulbecco's modified Eagle's medium (DMEM) with 4 mM L-glutamine adjusted to contain 1.5 g/L sodium bicarbonate, 4.5 g/L glucose, and 10% heat inactivated fetal bovine serum. Cells were grown in tissue culture flasks and seeded at appropriate density into 6 wells tissue culture plates. Four million Raw cells in half a milliliter were stimulated with 1 μg/ml Lipopolysaccharide E. coli 055:B5 (DIFCO Laboratories). The mouse macrophages were pre-treated for one hour with controls or 10 μM of test compounds, and later on activated with LPS. RNA samples were extracted from the cells 3 hrs after activation and iNOS gene expression levels were analyzed by real-time RT-PCR as previously described. For western blot analysis, compounds were tested at 1, 5 and 10 μM and cells were harvested 24 hrs after LPS stimulation. Supernatant were collected and NO secretion was analyzed using ELISA. Cells were washed 3 times with cold PBS, scrapped and lyzed in 100 μl cell lysis buffer containing 20 mM HEPES, pH 7.6, 150 mM NaCl, 1.5 mM MgCl2, 0.2 mM EDTA, 1% Triton X-100, 10% glycerol, 1 mM DTT, 1 mM PMSF, 10 μg/ml aprotinin. 5 µg/ml leupeptin, 10 mM p-nitrophenyl phosphate, 100 mM β-glycerophosphate, 1 mM sodium fluoride, and 0.1 μM sodium orthovanadate. Cells were lyzed on ice for 10 minutes before further processing.
The results of this experiment are expressed as fold activation of iNOS over non-activated macrophages, after normalization to cyclophilin A expression. Compound 18A inhibits 63% of iNOS gene expression, and compounds 18B, 18E and 18F inhibit 55%, 25% and 100% respectively. […] This surprising observation strengthen the fact that compounds of the invention, though chemically related, have distinct and unexpected properties.

RAW 264.7 macrophages = test: NO secretion of LPS activated RAW 264.7 macrophages (ELISA); format: cell-based; conditions: Mus musculus, RAW264.7, 24 hrs after LPS stimulation
Experimental: as §2, with “processing. […]” for “processing.”

In the case of `CCCCCCC(C)(C)c1cc(O)c([C@H]2CC(=O)C3CC2C3(C)C)c(OC(=O)/C=C/C(=O)O)c1` (single isomer, unassigned; (-)) [Compound 18F, (−)-4-{4-[1,1-Dimethylheptyl]-2-fumarate-6-hydroxy-phenyl}-6,6-dimethyl-bicyclo[3.1.1]heptan-2-one], the “Fold gene expression CB1, Brain, Treated” value (CB1) is reported as 1 fold, the “Fold gene expression CB1, Spinal Cord, Treated” value (CB1) is reported as 1 fold and the “Fold gene expression CB2, Spinal Cord, Treated” value (CB2) is reported as 2 fold. For the same molecule, the “Fold gene expression CB2, Brain, Treated” value (CB2; untreated −13) was 1* fold, the “Fold gene expression IFN-γ, Spinal Cord, Treated” value (IFN-γ) was 3 fold and the “Fold gene expression IFN-γ, Brain, Treated” value (IFN-γ; untreated −9) was 1* fold. The “effect of CB1 or CB2 antagonists on iNOS inhibiting activity” value (iNOS; 5 μM of SR-141716 and SR-144528) was “only blocked by CB2 antagonists”, the “inhibition of iNOS gene expression” value (iNOS; 10 μM, 1 h pre-treatment, 3 hrs after LPS activation) was 100% and the inhibition at 10 µM (RAW 264.7 macrophages) was 61%.
